# Reference: article PMC11357256, “Selectivity Screening and Structure–Cytotoxic Activity Observations of Selected Oleanolic Acid (OA)-Type Saponins from the Amaranthaceae Family on a Wiade Panel of Human Cancer Cell Lines” (Molecules, 2024)
# Key:
# Caco-2 = assay: MTT cell viability assay, Caco-2 colon cancer cells; assay type: cell-based; details: Homo sapiens
# Source text: (§1) Cell lines used in the study were grouped as follows: skin panel (melanomas: HTB140, derived from metastatic site: lymph node, ATCC Hs 294 T; malignant A375, ATCC CRL-1619; stage I primary WM793, RRID:CVCL 8787; skin keratinocytes HaCaT); prostate panel (prostate carcinomas: Du145, derived from metastatic site: brain, ATCC HTB-81; grade IV PC3, derived from metastatic site: bone, ATCC CRL-1435, LNCaP, derived from the metastatic site: lymph node, ATCC CRL-1740; prostate epithelial, PNT2, ECACC 95012613); gastrointestinal panel (colorectal adenocarcinomas: Caco2, ATCC HTB-37, HT29, ATCC HTB-38, DLD-1, ATCC CCL-221, HCT116, ATCC CCL-247, and colon epithelial cells CCD 841 CoN, ATCC CRL-1790; hepatocellular carcinoma HepG2, ATCC HB-8065); thyroid panel (follicular thyroid carcinoma FTC133, ECACC 9406090, undifferentiated thyroid carcinoma 8505C, ECACC 94090184, papillary thyroid carcinoma TPC-1, SCC147, normal thyroid follicular epithelial Nthy-ori 3–1, ECACC 90011609); and breast panel (ER-positive breast adenocarcinoma MCF7, ATCC HTB-22; ER-negative breast adenocarcinoma MDA-MB-231, ATCC HTB-26; breast epithelial MCF10A, ATCC CRL-10317). Cells were grown under standard conditions (37 °C, 5% CO2, relative humidity), and culture media (DMEM/F12 for PNT2, WM 793, HT29, PC3, FTC133, 8505 C, MDA-MB-231, TPC-1; DMEM Low Glucose for DU145; DMEM High Glucose for HTB140, A375, HaCaT; MEM with NEAA for Caco2 and MCF7; RPMI1640 with sodium pyruvate for LNCaP; DMEM/F12 with 20 ng/mL epidermal growth factor (EGF), 10 μg/mL insulin, 0.5 μg/mL hydrocortisone, 100 ng/mL cholera toxin) for MCF10A) supplemented with 10% fetal bovine serum (FBS) or 5% donor horse serum for MCF10A, and 1% antibiotics solution (10,000 U penicillin and 10 mg streptomycin/mL) […], as previously described. All cell lines, culture media, and supplements were from Sigma-Aldrich (Germany).
# (§2) The cells were seeded in 96-well plates (1.5 × 10^4 cells/well). After 24 h, fresh medium was added, containing the tested compounds (0.5–100 μg/mL) and incubated for 24 or 48 h. Cell viability was determined by MTT assay, according to the manufacturer’s instructions, as described previously. Each experiment was performed in triplicate. The absorbance was measured at 570 nm using a Biotek Synergy microplate reader (BioTek Instruments Inc., Winooski, VT, USA). Cell viability was expressed as a percent of control (untreated cells). Doxorubicin was used as a reference drug.
# MCF10A = assay: MTT cell viability assay, MCF10A normal breast epithelial cells; assay type: cell-based; details: Homo sapiens, MCF-10A
# Source text: as §1, §2
# A375 = assay: MTT cell viability assay, A375 malignant melanoma cells; assay type: cell-based, human; details: for IC50: Homo sapiens, A-375
# Source text: as §1, §2
# (§3) The selectivity index (SI) was calculated from the following formula:SI = IC50 of compound in a normal cell line/IC50 of compound in cancer cell line.IC50, half maximal inhibitory concentration, is a concentration required to kill 50% of the cells.
# MDA-MB-231 = assay: MTT cell viability assay, MDA-MB-231 breast adenocarcinoma cells; assay type: cell-based; details: Homo sapiens
# Source text: as §1, §2
# Du-145 = assay: MTT cell viability assay, Du-145 prostate carcinoma cells; assay type: cell-based; details: Homo sapiens
# Source text: as §1, §2
# HaCaT = assay: MTT cell viability assay, HaCaT keratinocytes; assay type: cell-based; details: Homo sapiens
# Source text: as §1, §2
# TPC-1 = assay: MTT cell viability assay, TPC-1 papillary thyroid carcinoma cells; assay type: cell-based, human; details: for IC50: Homo sapiens, TPC1
# Source text: as §1, §2, §3
# HT29 = assay: MTT cell viability assay, HT29 colorectal adenocarcinoma cells; assay type: cell-based; details: Homo sapiens, HT-29
# Source text: as §1, §2
# PNT2 = assay: MTT cell viability assay, PNT2 normal prostate epithelial cells; assay type: cell-based; details: Homo sapiens
# Source text: as §1, §2
# FTC133 = assay: MTT cell viability assay, FTC133 follicular thyroid carcinoma cells; assay type: cell-based, human; details: for IC50: Homo sapiens, FTC-133
# Source text: as §1, §2, §3
# 8505C = assay: MTT cell viability assay, 8505C undifferentiated thyroid carcinoma cells; assay type: cell-based, human; details: Homo sapiens, 8505C
# Source text: as §1, §2, §3
# PC3 = assay: MTT cell viability assay, PC3 prostate carcinoma cells; assay type: cell-based; details: Homo sapiens, PC-3
# Source text: as §1, §2
# HepG2 = assay: MTT cell viability assay, HepG2 hepatocellular carcinoma cells; assay type: cell-based; details: Homo sapiens
# Source text: as §1, §2
# MCF7 = assay: MTT cell viability assay, MCF7 breast adenocarcinoma cells; assay type: cell-based; details: Homo sapiens
# Source text: as §1, §2
# WM793 = assay: MTT cell viability assay, WM793 primary melanoma cells; assay type: cell-based, human; details: for IC50: Homo sapiens
# Source text: as §1, §2, §3
# Nthy-ori 3-1 = assay: MTT cell viability assay, Nthy-ori 3-1 normal thyroid epithelial cells; assay type: cell-based; details: Homo sapiens
# Source text: as §1, §2
# HCT116 = assay: MTT cell viability assay, HCT116 colon cancer cells; assay type: cell-based; details: Homo sapiens, HCT-116
# Source text: as §1, §2
# LNCaP = assay: MTT cell viability assay, LNCaP prostate adenocarcinoma cells; assay type: cell-based; details: Homo sapiens
# Source text: as §1, §2
# HTB-140 = assay: MTT cell viability assay, HTB-140 metastatic melanoma cells; assay type: cell-based, human; details: for IC50: Homo sapiens
# Source text: as §1, §2, §3
# CCD 841 CoN = assay: MTT cell viability assay, CCD 841 CoN normal colon epithelial cells; assay type: cell-based; details: Homo sapiens
# Source text: as §1, §2
# DLD-1 = assay: MTT cell viability assay, DLD-1 colon cancer cells; assay type: cell-based; details: Homo sapiens
# Source text: as §1, §2
smiles,measurement,setting,value
"CC1(C)CC[C@]2(C(=O)O[C@@H]3O[C@H](CO)[C@@H](O)[C@H](O)[C@H]3O)CC[C@]3(C)C(=CC[C@@H]4[C@@]5(C)CC[C@H](O[C@@H]6O[C@H](C(=O)O)[C@@H](O)[C@H](O)[C@H]6O)C(C)(C)[C@@H]5CC[C@]43C)[C@@H]2C1 [ChIVa, 3-O-β-D-glucuronopyranosyl oleanolic acid 28-O-β-D-glucopyranosyl ester]",IC50,"Caco-2; Caco-2, 24 h",69 µg/mL
same,IC50,"Caco-2; Caco-2, 48 h",15.8 µg/mL
same,IC50,MCF10A; 24 h,> 100 µg/mL
same,IC50,MCF10A; 48 h,> 100 µg/mL
same,IC50,"A375; A375, 24 h",1.6 µg/mL
same,IC50,"A375; A375, 48 h",0.6 µg/mL
same,Selectivity Index (SI),"A375; IC50 HaCaT / IC50 A375, 24 h",4.6
same,IC50,"MDA-MB-231; MDA-MB-231, 24 h",> 100 µg/mL
same,IC50,"MDA-MB-231; MDA-MB-231, 48 h",98.1 µg/mL
same,IC50,"Du-145; DU-145, 24 h",22.9 µg/mL
same,IC50,"Du-145; DU-145, 48 h",9.1 µg/mL
same,IC50,HaCaT; 24 h,7.3 µg/mL
same,IC50,HaCaT; 48 h,3.1 µg/mL
same,IC50,"TPC-1; TPC-1, 24 h",> 100 µg/mL
same,IC50,"TPC-1; TPC-1, 48 h",81.8 µg/mL
same,Selectivity Index (SI),"TPC-1; IC50 Nthy-ori 3-1 / IC50 TPC-1, 48 h",> 1.2
same,IC50,"HT29; HT29, 24 h",14.9 µg/mL
same,IC50,"HT29; HT29, 48 h",5.6 µg/mL
same,IC50,PNT2; 24 h,> 100 µg/mL
same,IC50,PNT2; 48 h,> 100 µg/mL
same,IC50,"FTC133; FTC133, 24 h",8.5 µg/mL
same,IC50,"FTC133; FTC133, 48 h",4 µg/mL
same,Selectivity Index (SI),"FTC133; IC50 Nthy-ori 3-1 / IC50 FTC133, 24 h",> 11.76
same,Selectivity Index (SI),"FTC133; IC50 Nthy-ori 3-1 / IC50 FTC133, 48 h",> 25.1
same,IC50,8505C; 24 h,> 100 µg/mL
same,IC50,8505C; 48 h,> 100 µg/mL
same,IC50,"PC3; PC3, 24 h",45.6 µg/mL
same,IC50,"PC3; PC3, 48 h",22.8 µg/mL
same,IC50,"HepG2; HepG2, 24 h",30 µg/mL
same,IC50,"HepG2; HepG2, 48 h",20.9 µg/mL
same,IC50,"MCF7; MCF7, 24 h",> 100 µg/mL
same,IC50,"MCF7; MCF7, 48 h",> 100 µg/mL
same,IC50,"MCF7; MCF7, MCF-7, incubation time not stated",> 100 µg/mL
same,IC50,"WM793; WM793, 24 h",18.5 µg/mL
same,IC50,"WM793; WM793, 48 h",4.4 µg/mL
same,Selectivity Index (SI),"WM793; IC50 HaCaT / IC50 WM793, 24 h",0.4
same,Selectivity Index (SI),"WM793; IC50 HaCaT / IC50 WM793, 48 h",0.7
same,IC50,Nthy-ori 3-1; 24 h,> 100 µg/mL
same,IC50,Nthy-ori 3-1; 48 h,> 100 µg/mL
same,IC50,"HCT116; HCT116, 24 h",> 100 µg/mL
same,IC50,"HCT116; HCT116, 48 h",78.2 µg/mL
same,IC50,LNCaP; 24 h,> 100 µg/mL
same,IC50,LNCaP; 48 h,> 100 µg/mL
same,IC50,"HTB-140; HTB-140, 24 h",15 µg/mL
same,IC50,"HTB-140; HTB-140, 48 h",8.7 µg/mL
same,Selectivity Index (SI),"HTB-140; IC50 HaCaT / IC50 HTB-140, 24 h",0.5
same,Selectivity Index (SI),"HTB-140; IC50 HaCaT / IC50 HTB-140, 48 h",0.4
same,IC50,CCD 841 CoN; 24 h,> 100 µg/mL
same,IC50,CCD 841 CoN; 48 h,> 100 µg/mL
same,IC50,"DLD-1; DLD-1, 24 h",> 100 µg/mL
same,IC50,"DLD-1; DLD-1, 48 h",50.3 µg/mL
